Results published in patent US20260200982A1, “HER RECEPTOR DERIVED PEPTIDES AND METHODS OF USE THEREOF” (Ramot at Tel-Aviv University Ltd., priority 2022, published 2026).
pIC50: −log10 of the molar value. The star is where a group is joined. Myristoyl = CCCCCCCCCCCCCC(=O)*

Tests used:
ErbB2 = assay: Western blot analysis of dissected Panc-1 tumors, ErbB2; format: in vivo, human; conditions: Panc-1 tumor lysates; FIGS. 10A-C
Description: Pancreatic Tumor Growth in Nude Mice—The study was conducted according to the NIH Guidelines for Use and Care of Laboratory Animals and following the approval by Animal Care Committee of the Tel Aviv University. Nude CD1-Nu mice (25-30 g) housed in barrier facilities on a 12-h light/dark cycle one week prior to the injection of tumor cells (day zero). On day zero, 2×10^6 Panc 1 cells in 0.1 ml of PBS were implanted subcutaneously just above the right femoral joint. Tumor size was measured every 3-4 days. When the tumors were apparently seen and the calculated tumor size was 40 mm^3, the animals were divided randomly into two groups of mice (control vehicle treated and myr-NLS (SEQ ID NO: 5) treated; 8 mice per group). Treatment with the myr-NLS (SEQ ID NO: 5) was performed by intraperitoneal injection of 25 μg in 100 μl PBS (or 100 μl PBS for control mice) every day. Tumors size was measured 3 times a week. At the end of the experiment, the mice were sacrificed, and the tumors were dissected and used for further analysis.
Western blot analysis—Half of each tumor was homogenized in lysis buffer, using a Potter-Elvehjem manual homogenizer, cleared and kept at −70° C. […] Immunoreactive bands were detected with the enhanced chemiluminescence reagent (Luminata Crescendo Western HRP). Densitometric quantification analysis of the resulted images was done using ImageJ program. […]

[1] = test system: Panc-1 pancreatic cancer cells; format: cell-based, human; conditions: Panc 1; 72 hours; FIGS. 4B and 4C; read-out: IC50 (cell viability)
Excerpt: (§1) Cell lines—Human breast cancer cell lines SKBR3 [Peles E et al. EMBO J. (1993) 12(3):961-71] and MCF7 [Faigenbloom L et al., Mol Syst Biol. (2015) 11(12):845] and human glioblastoma U87 [Goldberg L et al. Cancer Res. (2006) 66(24):11709-17] cell line, as well as Rat-1 fibroblast cells and H-Ras-transformed Rat-1 cells (EJ cells) [Marom M et al. J Biol Chem. (1995) 270(38):22263-70] and human Panc-1 and MIA PaCa-2 pancreatic cell lines (Rak R et al. Oncoscience. 2014 1(1):39-48; Weisz B et al. Oncogene (1999) 18, 2579±2588) were all grown in Dulbecco's modified Eagle's medium (DMEM; Biological Industries, Beithaemek, Israel). Human colorectal cancer cell lines DLD-1 (ATTC Cat No. CCL-221), HCT-116 (ATTC Cat No. CCL-247) and LNCaP prostate cancer cells were grown in Roswell Park Memorial Institute 1640 (RPMI 1640) medium and McCoy's 5A media, respectively (Sigma-Aldrich). All media were supplemented with antibiotics and 10% heat-inactivated fetal bovine serum (FBS; Gibco). Human breast cell line MCF10A [Bott A et al. Oncotarget. (2017) 8(27):43897-43914] was grown in Dulbeco's Modified Eagle's Medium/Nutrient Mixture F-12 HAM medium (DMEM F-12 HAM; Sigma-Aldrich), supplemented with antibiotics, 5% inactivated horse serum (HS; Invitrogen), 2 mM L-glutamine (Biological Industries, Beithaemek, Israel), 0.1 μg/ml cholera toxin (Sigma-Aldrich), 0.5 μg/ml hydrocortisone (Sigma-Aldrich), 10 μg/ml insulin (Biological Industries, Beithaemek, Israel) and 2 ng/ml EGF (R&D Systems). Cells were incubated at 37° C. in 5% CO2 in air, and the medium was changed every 3-4 days. Cells were passaged in trypsin/disodium ethylenediaminetetraacetic acid (Biological Industries, Beithaemek, Israel) when confluency reached 70%. One day prior to treatment the cells were plated at ~50% confluency in a medium supplemented with 10% FBS or 5% HS, accordingly.
(§2) Methylene blue viability assay—Cells were plated in 96-wells plates at cell densities of 1.5×10^3 (EJ, DLD-1), 3×10^3 (Rat-1, HCT-116, U87), 5×10^3 (SKBR3, MCF7) and 6×10^3 (MCF10A) cells/well. On the following day, cells were treated as indicated, and grown for 72 hours. Cell number determination was performed as described previously. IC-50 values were calculated using a non-linear regression model (logarithmic inhibitor vs. normalized response-variable slope) with the GraphPad Prism 6 software.

[2] = test system: HCT-116 colon cancer cells; format: cell-based, human; conditions: HCT116; 72 hours; FIGS. 4B and 4C; read-out: IC50 (cell viability)
Excerpt: as §1, §2

U87 glioma cells = format: cell-based, human; conditions: U87; 72 hours; FIGS. 4B and 4C; read-out: IC50 (cell viability)
Excerpt: as §1, §2

DLD-1 colon cancer cells = format: cell-based, human; conditions: DLD-1; 72 hours; FIGS. 4B and 4C; read-out: IC50 (cell viability)
Excerpt: as §1, §2

MIA PaCa-2 cells = assay: Colony formation assay, MIA PaCa-2; format: cell-based, human; conditions: 4.5 μM, 72 hours, FIG. 8
Description: Colony formation assay—Cells were plated onto 12-well plate (6×10^4 cells/well) and treated with either PBS or myr-NLS at the IC50 concentration for 3 days. Cells were collected and replated in 10-cm plates (at 3 dilutions of 1:10, 1:20 and 1:40). After 7-14 days when visible and yet separated colonies were formed, the cells were fixed with 0.1% acetic acid in PBS, and stained with 0.4% crystal violet in 0.1% acetic acid. Total colonies area was calculated using the ImageJ program.
In order to test the effect of myr-NLS on cell tumorigenicity, a colony formation assay was performed. To this end, Panc-1 and MIA PaCa-2 cells were treated or untreated for 72 hours with IC50 dose of myr-NLS (SEQ ID NO: 5, 8 μM and 4.5 μM respectively). Cells were then seeded at the same dilutions in new plates until colonies were formed.

Rat-1 fibroblast cells = assay: Methylene blue viability assay, Rat-1; format: cell-based; conditions: FIG. 4C
Excerpt: Cell lines—Human breast cancer cell lines SKBR3 [Peles E et al. EMBO J. (1993) 12(3):961-71] and MCF7 [Faigenbloom L et al., Mol Syst Biol. (2015) 11(12):845] and human glioblastoma U87 [Goldberg L et al. Cancer Res. (2006) 66(24):11709-17] cell line, as well as Rat-1 fibroblast cells and H-Ras-transformed Rat-1 cells (EJ cells) [Marom M et al. J Biol Chem. (1995) 270(38):22263-70] and human Panc-1 and MIA PaCa-2 pancreatic cell lines (Rak R et al. Oncoscience. 2014 1(1):39-48; Weisz B et al. Oncogene (1999) 18, 2579±2588) were all grown in Dulbecco's modified Eagle's medium (DMEM; Biological Industries, Beithaemek, Israel). Human colorectal cancer cell lines DLD-1 (ATTC Cat No. CCL-221), HCT-116 (ATTC Cat No. CCL-247) and LNCaP prostate cancer cells were grown in Roswell Park Memorial Institute 1640 (RPMI 1640) medium and McCoy's 5A media, respectively (Sigma-Aldrich). All media were supplemented with antibiotics and 10% heat-inactivated fetal bovine serum (FBS; Gibco). Human breast cell line MCF10A [Bott A et al. Oncotarget. […]
as §2, with “On the following day, cells were treated as indicated, and grown for 72 hours. Cell number determination was performed as described previously.” left out

In the case of “Myr-RRRHIVRKRTLRRLL-OH (Myristoyl-RRRHIVRKRTLRRLL-OH; SMILES CCCCCCCCCCCCCC(=O)N[C@@H](CCCNC(=N)N)C(=O)N[C@@H](CCCNC(=N)N)C(=O)N[C@@H](CCCNC(=N)N)C(=O)N[C@@H](Cc1c[nH]cn1)C(=O)N[C@H](C(=O)N[C@H](C(=O)N[C@@H](CCCNC(=N)N)C(=O)N[C@@H](CCCCN)C(=O)N[C@@H](CCCNC(=N)N)C(=O)N[C@H](C(=O)N[C@@H](CC(C)C)C(=O)N[C@@H](CCCNC(=N)N)C(=O)N[C@@H](CCCNC(=N)N)C(=O)N[C@@H](CC(C)C)C(=O)N[C@@H](CC(C)C)C(=O)O)[C@@H](C)O)C(C)C)[C@@H](C)CC) [myr-NLS]”, the “levels of total ErbB2 in tumors” value (ErbB2) was “reduced”, the “phosphorylated ErbB2 expression in tumors” value (ErbB2) was “reduced” and the pIC50 [1] was 5.09. It also gave a pIC50 [2] of 4.89, a pIC50 (U87 glioma cells) of 4.49 and a pIC50 (DLD-1 colon cancer cells) of 4.47. The “colony formation (total colonies area)” value (MIA PaCa-2 cells) was “fewer and smaller colonies” and the “viability of non-transformed Rat-1 cells” value (Rat-1 fibroblast cells) was “had no effect”.
